Data on 1 molecule can be found in paper PMC8050276, “Estradiol analogs attenuate autophagy, cell migration and invasion by direct and selective inhibition of TRPML1, independent of estrogen receptors” (Scientific Reports, 2021).

The target in one test is T1, hTPC2L11A/L12A-RFP (Homo sapiens, UniProt Q8NHX9, L11A/L12A).
T1 construct: expressed in transfected cells
Description: Fluo-4 Ca2+ assay, HEK293 stably expressing hTPC2L11A/L12A-RFP, activated with TPC2-A1-N or TPC2-A1-P. The format is cell-based. Particulars: activated by either TPC2-A1-P or TPC2-A1-N.

The target in another test is T2, hTRPML1 WT (Homo sapiens, UniProt Q9GZU1).
T2 construct: expressed in transfected cells; host or cells: HEK293
T2 sequence (Q9GZU1 whole entry): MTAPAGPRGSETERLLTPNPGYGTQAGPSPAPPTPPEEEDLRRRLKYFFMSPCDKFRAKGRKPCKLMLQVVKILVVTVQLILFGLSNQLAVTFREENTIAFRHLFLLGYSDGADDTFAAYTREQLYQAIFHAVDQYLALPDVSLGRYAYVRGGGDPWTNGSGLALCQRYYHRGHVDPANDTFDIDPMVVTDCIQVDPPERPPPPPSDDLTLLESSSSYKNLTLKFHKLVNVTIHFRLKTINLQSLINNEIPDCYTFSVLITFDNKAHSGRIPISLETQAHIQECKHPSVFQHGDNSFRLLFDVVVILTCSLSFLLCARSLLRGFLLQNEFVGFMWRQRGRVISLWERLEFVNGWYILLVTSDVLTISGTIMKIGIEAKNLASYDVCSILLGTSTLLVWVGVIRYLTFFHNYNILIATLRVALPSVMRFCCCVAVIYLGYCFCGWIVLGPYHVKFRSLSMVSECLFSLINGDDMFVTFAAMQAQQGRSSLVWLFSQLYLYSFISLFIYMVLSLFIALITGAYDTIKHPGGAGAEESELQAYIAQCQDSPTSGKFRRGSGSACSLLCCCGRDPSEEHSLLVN
In words: Endolysosomal patch-clamp, vacuolin-enlarged endo-lysosomes from hTRPML1 WT expressing HEK293 cells. The class given is cell-based. To be noted: activation with ML-SA1 (10 µM) or PI(3,5)P2 (1 µM), luminal pH 4.6. On the procedure: (§1) For whole-LE/LY manual patch-clamp recordings, cells were treated with 1 μM vacuolin-1 (> 2 h) at 37 °C and 5% CO2 and experiments performed as described previously[19],[25]. Compound was washed out before patch-clamp experimentation. Currents were recorded using an EPC-10 patch-clamp amplifier (HEKA, Lambrecht, Germany) and PatchMaster acquisition software (https://www.heka.com/). Data were digitized at 40 kHz and filtered at 2.8 kHz. Fast and slow capacitive transients were cancelled by the compensation circuit of the EPC-10 amplifier. All recordings were obtained at room temperature and were analyzed using PatchMaster acquisition software (https://www.heka.com/) and OriginPro 6.1 (https://www.originlab.com/). […] For all experiments, salt-agar bridges were used to connect the reference Ag–AgCl wire to the bath solution to minimize voltage offsets. Liquid junction potential was corrected. For the application of the small molecule inhibitors/flavonoids, cytoplasmic solution was completely exchanged by cytoplasmic solution containing compound. The current amplitudes at − 100 mV were extracted from individual ramp current recordings. Unless otherwise stated, cytoplasmic solution contained 140 mM K-MSA, 5 mM KOH, 4 mM NaCl, 0.39 mM CaCl2, 1 mM EGTA and 10 mM HEPES (pH was adjusted with KOH to 7.2). […]
On the technique in general: In patch-clamp work, channel activity is measured electrically.

The subject of a further test is TFEB. In words: TFEB shift / nuclear translocation upon nutrient starvation. The class given is cell-based, human. Particulars: EDME 1 µM, Hbss. On the procedure:
5 × 10^4 wild-type human fibroblasts were seeded in a 12-well plate and treated overnight with DMSO or different TRPML1 inhibitors (EDME, PRU-10, PRU-12). The day after, cells were treated for 3 h in full media (Fed) or HBSS supplemented with 10 mM HEPES (nutrient starved) in presence of DMSO or different TRPML1 inhibitors (EDME, PRU-10, PRU-12). For autophagic flux experiments, cells were co-treated with 100 nM of bafilomycin A1 (Sigma).
Total cell lysates were prepared using TRIS HCl 10 mM pH 8.0 and 0.2% SDS supplemented with protein and phosphatase inhibitors (Sigma). Protein concentration was determined using the Bradford method. After SDS–polyacrylamide gel electrophoresis (PAGE) and immunoblotting, the protein recognized by the specific antibody was visualized by chemiluminescence methods (Luminata Crescendo Western HRP substrate, Millipore) using HRP-conjugated anti-rabbit or anti-mouse secondary antibodies (Cell Signalling). Images were acquired using Li-Cor Odyssey Fc Imaging System and densitometric quantification of unsaturated images was performed using ImageJ software (NIH). Uncropped and unprocessed western blot scans are provided as Fig. S1. The following primary antibodies were used: LC3 (Novus Cat. No. NB100-2220, 1:1000 in 5% milk), TFEB (Cell Signaling Cat. No. 4240, 1:1000 in 5% BSA) and β-actin (Santa Cruz Cat. No. Sc-47778, 1: 1000 in 5% BSA).

Another test concerns the target T3, TRPML1 (Mus musculus, UniProt Q99J21).
T3 construct: TRPML1 endogenously expressed in mouse alveolar macrophages; endogenous in cells; host or cells: primary murine alveolar macrophages
Description: Endolysosomal patch-clamp, murine alveolar macrophages endogenously expressing TRPML1. The format is cell-based. Particulars: EDME 10 µM, ML-SA1 10 µM. On the procedure:
as §1

A further test has as its system MDA-MB-231 cells. In words: Invasion assay, Matrigel-coated transwell chambers. To be noted: various concentrations, 4 h and o/n. The class given is cell-based, human. On the procedure: For invasion measurements transwell chambers in 24-well permeable support plates (Corning, #3421) were coated with Corning Matrigel basement membrane matrix (Corning, #354234) for 1.5 h. A total of 4 × 104 MDA-MB-231 WT and TRPML1 KO cells were seeded on top of the chambers in serum-free medium, and direct stimulation with EDME was performed. The lower compartment contained the chemotactic gradient, medium with 10% FBS. Cells were allowed to migrate for 4 h and o/n, and were then fixed and stained with crystal violet containing methanol. Non-invaded cells were removed with Q-tips and pictures were taken of the bottom side of the membrane using an inverted microscope (Olympus CKX41) and an Olympus SC50 camera (Olympus). The number of invaded cells was quantified using ImageJ 1.52a software.

T3 sequence (Q99J21 whole entry): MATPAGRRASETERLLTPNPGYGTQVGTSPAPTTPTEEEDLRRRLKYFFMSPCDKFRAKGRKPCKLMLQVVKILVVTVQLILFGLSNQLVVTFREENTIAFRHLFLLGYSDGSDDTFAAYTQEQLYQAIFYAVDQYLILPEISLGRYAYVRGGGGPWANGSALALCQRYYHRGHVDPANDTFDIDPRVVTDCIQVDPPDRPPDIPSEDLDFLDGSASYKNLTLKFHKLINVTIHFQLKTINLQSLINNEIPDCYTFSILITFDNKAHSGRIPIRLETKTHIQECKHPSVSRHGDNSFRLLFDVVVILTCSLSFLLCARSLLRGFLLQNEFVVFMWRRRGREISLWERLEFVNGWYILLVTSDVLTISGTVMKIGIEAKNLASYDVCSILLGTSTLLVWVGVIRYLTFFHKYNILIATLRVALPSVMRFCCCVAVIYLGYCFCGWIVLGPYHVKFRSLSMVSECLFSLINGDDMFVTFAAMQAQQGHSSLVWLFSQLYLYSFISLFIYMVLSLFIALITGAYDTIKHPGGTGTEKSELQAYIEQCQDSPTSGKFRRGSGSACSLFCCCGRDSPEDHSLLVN
T1 sequence (Q8NHX9 whole entry L11A/L12A): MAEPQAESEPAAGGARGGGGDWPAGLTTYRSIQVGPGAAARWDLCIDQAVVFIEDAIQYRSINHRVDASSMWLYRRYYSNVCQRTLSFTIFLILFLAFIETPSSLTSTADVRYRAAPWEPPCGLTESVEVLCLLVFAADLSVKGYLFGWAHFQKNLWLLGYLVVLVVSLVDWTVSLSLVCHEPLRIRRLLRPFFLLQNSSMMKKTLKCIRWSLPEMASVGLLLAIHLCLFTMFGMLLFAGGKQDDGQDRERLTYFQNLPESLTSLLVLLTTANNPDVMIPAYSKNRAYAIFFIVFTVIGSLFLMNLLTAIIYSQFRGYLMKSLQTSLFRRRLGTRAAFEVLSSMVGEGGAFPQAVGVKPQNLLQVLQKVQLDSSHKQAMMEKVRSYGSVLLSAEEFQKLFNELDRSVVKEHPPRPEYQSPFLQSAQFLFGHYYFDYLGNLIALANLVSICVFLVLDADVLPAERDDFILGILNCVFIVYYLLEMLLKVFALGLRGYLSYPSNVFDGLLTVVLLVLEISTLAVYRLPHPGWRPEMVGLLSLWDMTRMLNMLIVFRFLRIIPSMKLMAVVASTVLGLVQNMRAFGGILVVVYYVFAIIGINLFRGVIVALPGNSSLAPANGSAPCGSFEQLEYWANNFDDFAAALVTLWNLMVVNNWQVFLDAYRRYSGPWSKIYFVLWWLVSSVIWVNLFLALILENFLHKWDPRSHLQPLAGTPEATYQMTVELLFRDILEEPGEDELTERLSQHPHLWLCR

Turning to `COc1ccc2c(c1)CC[C@@H]1[C@@H]2CC[C@]2(C)[C@@H](O)CC[C@@H]12` [EDME, 17β-estradiol methyl ether], at hTPC2L11A/L12A-RFP, the “IC50 at TPC2” value is “no meaningful IC50s”. Moreover, the “inhibition of WT hTRPML1 current, endolysosomal patch-clamp” value against hTRPML1 WT was “inhibitory effect”. In addition, the “TFEB molecular downshift induced by nutrient starvation” value with TFEB is “reduced”. Besides, the “inhibition of endogenous TRPML1 in alveolar macrophages” value against TRPML1 was “inhibition of TRPML1 activation”. Moreover, the “invasion of MDA-MB-231 cells” value with MDA-MB-231 cells was “significantly reduced”.
